Reference: ChEMBL document CHEMBL1144210, “Synthesis of all-trans anandamide: a substrate for fatty acid amide hydrolase with dual effects on rabbit platelet activation” (Bioorg Med Chem, 2008)
Active and inactive are the calls of the source. No cut-off for these calls is given here.

How the values were obtained:
Oryctolagus cuniculus [1] = organism: Oryctolagus cuniculus; test: Inhibition of FAAH in New Zealand white rabbit ear vein platelet assessed as [3H]anandamide hydrolysis at 7.5 uM
Oryctolagus cuniculus [2] = organism: Oryctolagus cuniculus; test: Inhibition of FAAH in New Zealand white rabbit ear vein platelets assessed as [3H]anandamide hydrolysis at 1.5 uM
Platelet [3] = test: Induction of platelet aggregation in New Zealand white rabbit ear vein plasma assessed as LDH activity at 0.36 mM; format: functional, cell-based; conditions: Oryctolagus cuniculus
Platelet [4] = test: Induction of platelet aggregation in New Zealand white rabbit ear vein plasma in presence of indomethacin; format: functional, cell-based; conditions: Oryctolagus cuniculus
Platelet [5] = test: Induction of platelet aggregation in New Zealand white rabbit ear vein plasma at 18 uM to 70 uM; format: functional, cell-based; conditions: Oryctolagus cuniculus
Platelet [6] = test: Induction of platelet aggregation in New Zealand white rabbit ear vein plasma in presence of aspirin; format: functional, cell-based; conditions: Oryctolagus cuniculus
Platelet [7] = test: Induction of platelet aggregation in New Zealand white rabbit ear vein plasma in presence of PMSF; format: functional, Oryctolagus cuniculus
Platelet [8] = test: Induction of in New Zealand white rabbit ear vein plasma in presence of URB597; format: functional, cell-based; conditions: Oryctolagus cuniculus
Platelet [9] = test: Induction of platelet aggregation in New Zealand white rabbit ear vein plasma at 100 uM to 1000 uM; format: functional, cell-based; conditions: Oryctolagus cuniculus
Platelet [10] = test: Inhibition of PAF-induced platelet aggregation in New Zealand white rabbit ear vein plasma; format: functional, cell-based; conditions: Oryctolagus cuniculus

## CCCCC/C=C\C/C=C\C/C=C\C/C=C\CCCC(=O)NCCO
Oryctolagus cuniculus [1]
  Activity: Active
Oryctolagus cuniculus [2]
  Activity: Active
Platelet [3]
  Activity: Dose-dependent effect

## CCCCC/C=C/C/C=C/C/C=C/C/C=C/CCCC(=O)NCCO
Platelet [4]
  Activity: Active
Oryctolagus cuniculus [1]
  Activity: Active
Oryctolagus cuniculus [2]
  Activity: Active
Platelet [3]
  Activity: Active
Platelet [5]
  Activity: Dose-dependent effect
Platelet [6]
  Activity: Active
Platelet [7]
  inhibition (INH): 20%
Platelet [8]
  Activity: inactive
Platelet [9]
  Activity: Dose-dependent effect
Platelet [10]
  IC50: 4.7 µM
